Earlier results in paper PMC10593844, “Structure-function analyses reveal key molecular determinants of HIV-1 CRF01_AE resistance to the entry inhibitor temsavir” (Nature Communications, 2023).

How the values were obtained:
[1] = system: laboratory-adapted NL4-3 HIV-1 strain; design: method as in PMID 30604750; conditions: cited from earlier work
CRF01_AE strains = system: CRF01_AE strains; design: method as in PMID 30604750; conditions: range over CRF01_AE strains; cited from earlier work

Row | Structure (SMILES) | fold greater inhibition than temsavir [1] | IC50 (CRF01_AE strains) [nM]
1 | COc1cnc(-c2csc(CN(C)CCCN(C)C)n2)c2[nH]cc(C(=O)C(=O)N3CCC(=C(C#N)c4ccccc4)CC3)c12 [BMS-814508] | 4 fold | –
2 | COc1cnc(-c2csc(C(=O)NCCO)n2)c2[nH]cc(C(=O)C(=O)N3CCC(=C(C#N)c4ccccc4)CC3)c12 [BMS-818251] | ~ 100 fold | 32 to 733
